Assay results: patent publication US20250290117A1, “MOLECULAR PHENOTYPIC ANTIMICROBIAL SUSCEPTIBILITY TESTING” (priority 2024, published 2025)

Legend:
Type in all cases: cell-based
[1] = system: pathogens of clinical samples; experiment: Molecular phenotypic antimicrobial susceptibility test of clinical samples, direct PCR without a separate DNA purification step (Table 6)
Outline: (§1)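 Patient specimens in boric acid were grown in culture medium, adjusted to 0.5 McFarland by optical density, then incubated 12-16 hours with antimicrobials in Mueller Hinton Broth at breakpoint concentrations. Growth was read by semi-quantitative PCR, alongside a no-antimicrobial well for pathogen load.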

[2] = system: pathogens of clinical samples; experiment: Molecular phenotypic antimicrobial susceptibility test of clinical samples, extraction DNA purification step prior to PCR (Table 6)
Outline: as §1

Escherichia coli [3] = experiment: Traditional culture-based antimicrobial susceptibility test
Text: Table 3 illustrates the results of an example antimicrobial agent susceptibility test of the current application versus a traditional culture-based antimicrobial agent susceptibility test for multiple Escherichia coli isolates, in accordance with one or more embodiments of the disclosure. These specimens underwent extraction or DNA purification prior to PCR. As in Tables 1 and 2, the results of the test of the current application are similar to the results from the traditional test. […]
Table 8 illustrates the results of an example antimicrobial agent susceptibility test of the current application versus a traditional culture-based antimicrobial agent susceptibility test for a low level positive with <10,000 cells/mL in the original specimen. These specimens were tested with direct PCR (e.g., no extraction DNA purification step prior to PCR) after 16 hours of incubation. As in Tables 1, 2, 3, 5, and 7, the results of the test are similar to the traditional test. […]

Escherichia coli [4] = experiment: Molecular phenotypic antimicrobial susceptibility test (extraction or DNA purification prior to PCR)
Outline: as §1

[5] = E. coli, clinical sample of r10-r24
[6] = E. coli, clinical sample of r158-r172
[7] = K. aerogenes, clinical sample of r136-r150
[8] = K. pneumoniae, clinical sample of r121-r135
[9] = M. morganii, clinical sample of r55-r69
[10] = M. morganii, clinical sample of r70-r84
[11] = P. mirabilis, clinical sample of r25-r39
[12] = P. mirabilis, clinical sample of r40-r54
[13] = E. coli #1 - WDCM 00090 - 6.2×E3
[14] = E. coli #2 - WDCM 00090 - 6.2×E3
[15] = E. coli isolate 4, at sensitive breakpoint
[16] = E. coli isolate 5, Ct at control (average) 21.0933
[17] = E. coli isolate 5, at sensitive breakpoint
[18] = E. faecalis, clinical sample of r93-r99
[19] = E. faecalis, clinical sample of r100-r106
[20] = E. faecalis, clinical sample of r107-r113
[21] = E. faecalis, clinical sample of r114-r120
[22] = E. faecalis, clinical sample of r151-r157

Cc1nnc(SCC2=C(C(=O)O)N3C(=O)[C@@H](NC(=O)Cn4cnnn4)[C@H]3SC2)s1 [Cefazolin]
Molecular Antibiotic Susceptibility Result [1, 5]: Sensitive (Antimicrobial wells with pathogen load detected below the control wells (typically >2 cycle thresholds later) may be reported as Sensitive) | Molecular Antibiotic Susceptibility Result [1, 6]: Sensitive (Antimicrobial wells with pathogen load detected below the control wells (typically >2 cycle thresholds later) may be reported as Sensitive) | Molecular Antibiotic Susceptibility Result [1, 7]: Sensitive (Antimicrobial wells with pathogen load detected below the control wells (typically >2 cycle thresholds later) may be reported as Sensitive) | Molecular Antibiotic Susceptibility Result [1, 8]: Sensitive (Antimicrobial wells with pathogen load detected below the control wells (typically >2 cycle thresholds later) may be reported as Sensitive) | Molecular Antibiotic Susceptibility Result [1, 9]: Resistant | Molecular Antibiotic Susceptibility Result [1, 10]: Resistant | Molecular Antibiotic Susceptibility Result [1, 11]: Sensitive (Antimicrobial wells with pathogen load detected below the control wells (typically >2 cycle thresholds later) may be reported as Sensitive) | Molecular Antibiotic Susceptibility Result [1, 12]: Sensitive (Antimicrobial wells with pathogen load detected below the control wells (typically >2 cycle thresholds later) may be reported as Sensitive) | Molecular Antibiotic Susceptibility Result [2, 5]: Sensitive (Antimicrobial wells with pathogen load detected below the control wells (typically >2 cycle thresholds later) may be reported as Sensitive) | Molecular Antibiotic Susceptibility Result [2, 6]: Sensitive (Antimicrobial wells with pathogen load detected below the control wells (typically >2 cycle thresholds later) may be reported as Sensitive) | Molecular Antibiotic Susceptibility Result [2, 7]: Resistant | Molecular Antibiotic Susceptibility Result [2, 8]: Sensitive (Antimicrobial wells with pathogen load detected below the control wells (typically >2 cycle thresholds later) may be reported as Sensitive) | Molecular Antibiotic Susceptibility Result [2, 9]: Resistant | Molecular Antibiotic Susceptibility Result [2, 10]: Resistant | Molecular Antibiotic Susceptibility Result [2, 11]: Resistant | Molecular Antibiotic Susceptibility Result [2, 12]: Sensitive (Antimicrobial wells with pathogen load detected below the control wells (typically >2 cycle thresholds later) may be reported as Sensitive) | Traditional Culture Results (Escherichia coli [3]; [13]): Sensitive | Traditional Culture Results (Escherichia coli [3]; [14]): Sensitive | Traditional Culture Result (Escherichia coli [3]; E. coli isolate 1 (Table 3)): Resistant | Traditional Culture Result (Escherichia coli [3]; E. coli isolate 2 (Table 3)): Resistant | Traditional Culture Result (Escherichia coli [3]; E. coli isolate 3 (Table 3)): Resistant | Traditional Culture Result (Escherichia coli [3]; E. coli isolate 4 (Table 3)): Resistant | Traditional Culture Result (Escherichia coli [3]; E. coli isolate 5 (Table 3)): Sensitive | Traditional Culture Result (Escherichia coli [3]; E. coli isolate JJ1887): Resistant | Ct at Sensitive Breakpoint (Escherichia coli [4]; E. coli isolate 1, Ct at control (average) 21.238): 20.925 | Molecular Antimicrobial Susceptibility Result (Escherichia coli [4]; E. coli isolate 1, at sensitive breakpoint): Resistant | Ct at Sensitive Breakpoint (Escherichia coli [4]; E. coli isolate 2, Ct at control (average) 21.270): 19.313 | Molecular Antimicrobial Susceptibility Result (Escherichia coli [4]; E. coli isolate 2, at sensitive breakpoint): Resistant | Ct at Sensitive Breakpoint (Escherichia coli [4]; E. coli isolate 3, Ct at control (average) 22.0995): 20.834 | Molecular Antimicrobial Susceptibility Result (Escherichia coli [4]; E. coli isolate 3, at sensitive breakpoint): Resistant | Ct at Sensitive Breakpoint (Escherichia coli [4]; E. coli isolate 4, Ct at control (average) 17.5733): 17.23 | Molecular Antimicrobial Susceptibility Result (Escherichia coli [4]; [15]): Resistant | Ct at Sensitive Breakpoint (Escherichia coli [4]; [16]): 25.36 | Molecular Antimicrobial Susceptibility Result (Escherichia coli [4]; [17]): Sensitive (Antimicrobial wells with pathogen load detected below the control wells (typically >2 cycle thresholds later) may be reported as Sensitive)

CC1(C)S[C@@H]2[C@H](NC(=O)[C@H](N)c3ccccc3)C(=O)N2[C@H]1C(=O)O [Ampicillin]
Molecular Antibiotic Susceptibility Result [1, 5]: Resistant | Ct ([1]; E. coli, clinical sample of r10-r24, Ct control avg 12.97): 12.039 | Molecular Antibiotic Susceptibility Result [1, 6]: Sensitive (Antimicrobial wells with pathogen load detected below the control wells (typically >2 cycle thresholds later) may be reported as Sensitive) | Ct ([1]; E. coli, clinical sample of r158-r172, Ct control avg 12.894): 28.274 | Molecular Antibiotic Susceptibility Result [1, 18]: Sensitive (Antimicrobial wells with pathogen load detected below the control wells (typically >2 cycle thresholds later) may be reported as Sensitive) | Ct ([1]; E. faecalis, clinical sample of r93-r99, Ct control avg 22.011): 29.527 | Molecular Antibiotic Susceptibility Result [1, 19]: sensitive | Ct ([1]; E. faecalis, clinical sample of r100-r106, Ct control avg 21.027): 33.467 | Molecular Antibiotic Susceptibility Result [1, 20]: sensitive | Ct ([1]; E. faecalis, clinical sample of r107-r113, Ct control avg 20.529): 27.555 | Molecular Antibiotic Susceptibility Result [1, 21]: Sensitive (Antimicrobial wells with pathogen load detected below the control wells (typically >2 cycle thresholds later) may be reported as Sensitive) | Ct ([1]; E. faecalis, clinical sample of r114-r120, Ct control avg 20.909): 27.767 | Molecular Antibiotic Susceptibility Result [1, 22]: Sensitive (Antimicrobial wells with pathogen load detected below the control wells (typically >2 cycle thresholds later) may be reported as Sensitive) | Ct ([1]; E. faecalis, clinical sample of r151-r157, Ct control avg 18.551): 32.884 | Molecular Antibiotic Susceptibility Result [1, 7]: Sensitive (Antimicrobial wells with pathogen load detected below the control wells (typically >2 cycle thresholds later) may be reported as Sensitive) | Ct ([1]; K. aerogenes, clinical sample of r136-r150, Ct control avg 13.854): 16.046 | Molecular Antibiotic Susceptibility Result [1, 8]: Resistant | Ct ([1]; K. pneumoniae, clinical sample of r121-r135, Ct control avg […]): 14.269 | Molecular Antibiotic Susceptibility Result [1, 9]: Resistant | Ct ([1]; M. morganii, clinical sample of r55-r69, Ct control avg 12.09): 10.538 | Molecular Antibiotic Susceptibility Result [1, 10]: Resistant | Ct ([1]; M. morganii, clinical sample of r70-r84, Ct control avg 11.677): 11.867 | Molecular Antibiotic Susceptibility Result [1, 11]: Sensitive (Antimicrobial wells with pathogen load detected below the control wells (typically >2 cycle thresholds later) may be reported as Sensitive) | Ct ([1]; P. mirabilis, clinical sample of r25-r39, Ct control avg 11.801): 29.219 | Molecular Antibiotic Susceptibility Result [1, 12]: Sensitive (Antimicrobial wells with pathogen load detected below the control wells (typically >2 cycle thresholds later) may be reported as Sensitive) | Ct ([1]; P. mirabilis, clinical sample of r40-r54, Ct control avg 10.06): 30.995 | Molecular Antibiotic Susceptibility Result [2, 5]: Resistant | Molecular Antibiotic Susceptibility Result [2, 6]: Sensitive (Antimicrobial wells with pathogen load detected below the control wells (typically >2 cycle thresholds later) may be reported as Sensitive) | Ct ([2]; E. coli, clinical sample of r158-r172, Ct Control Avg 20.146): 29.961 | Molecular Antibiotic Susceptibility Result [2, 18]: Sensitive (Antimicrobial wells with pathogen load detected below the control wells (typically >2 cycle thresholds later) may be reported as Sensitive) | Ct ([2]; E. faecalis, clinical sample of r93-r99, Ct Control Avg 22.987): 31.697 | Molecular Antibiotic Susceptibility Result [2, 19]: sensitive | Ct ([2]; E. faecalis, clinical sample of r100-r106, Ct Control Avg 23.073): 37.6 | Molecular Antibiotic Susceptibility Result [2, 20]: sensitive | Ct ([2]; E. faecalis, clinical sample of r107-r113, Ct Control Avg 22.144): 29.684 | Molecular Antibiotic Susceptibility Result [2, 21]: Sensitive (Antimicrobial wells with pathogen load detected below the control wells (typically >2 cycle thresholds later) may be reported as Sensitive) | Ct ([2]; E. faecalis, clinical sample of r114-r120, Ct Control Avg 20.822): 33.01 | Molecular Antibiotic Susceptibility Result [2, 22]: Sensitive (Antimicrobial wells with pathogen load detected below the control wells (typically >2 cycle thresholds later) may be reported as Sensitive) | Ct ([2]; E. faecalis, clinical sample of r151-r157, Ct Control Avg 20.56): Undet | Molecular Antibiotic Susceptibility Result [2, 7]: Resistant | Ct ([2]; K. aerogenes, clinical sample of r136-r150, Ct Control Avg 19.994): 19.504 | Molecular Antibiotic Susceptibility Result [2, 8]: Resistant | Ct ([2]; K. pneumoniae, clinical sample of r121-r135, Ct Control Avg 24.272): 21.189 | Molecular Antibiotic Susceptibility Result [2, 9]: Resistant | Ct ([2]; M. morganii, clinical sample of r55-r69, Ct Control Avg 28.86): 25.767 | Molecular Antibiotic Susceptibility Result [2, 10]: Resistant | Ct ([2]; M. morganii, clinical sample of r70-r84, Ct Control Avg 27.053): 25.947 | Molecular Antibiotic Susceptibility Result [2, 11]: Sensitive (Antimicrobial wells with pathogen load detected below the control wells (typically >2 cycle thresholds later) may be reported as Sensitive) | Ct ([2]; P. mirabilis, clinical sample of r25-r39, Ct Control Avg 26.064): 34.177 | Molecular Antibiotic Susceptibility Result [2, 12]: Sensitive (Antimicrobial wells with pathogen load detected below the control wells (typically >2 cycle thresholds later) may be reported as Sensitive) | Ct ([2]; P. mirabilis, clinical sample of r40-r54, Ct Control Avg 26.987): 35.741 | Traditional Culture Results (Escherichia coli [3]; [13]): Sensitive | Traditional Culture Results (Escherichia coli [3]; [14]): Sensitive | Traditional Culture Result (Escherichia coli [3]; E. coli isolate 4 (Table 3)): Resistant | Traditional Culture Result (Escherichia coli [3]; E. coli isolate 5 (Table 3)): Sensitive | Traditional Culture Result (Escherichia coli [3]; E. coli isolate JJ1887): Resistant | Molecular Antimicrobial Susceptibility Result (Escherichia coli [4]; [15]): Resistant | Ct at Sensitive Breakpoint (Escherichia coli [4]; [16]): 24.64 | Molecular Antimicrobial Susceptibility Result (Escherichia coli [4]; [17]): Sensitive (Antimicrobial wells with pathogen load detected below the control wells (typically >2 cycle thresholds later) may be reported as Sensitive)
